In the NIST ThermoML archive (doi:10.1016/j.fluid.2016.02.009):
± gives the expanded uncertainty stated by the source.

Details: Liquid, Vibrating tube method

CCOC(C)(C)C [2-ethoxy-2-methylpropane]
Details	mass density [kg/m3]
283.15 K, 100 kPa	751.23 ± 0.3
283.15 K, 5000 kPa	756.42 ± 0.33
283.15 K, 10000 kPa	761.33 ± 0.36
283.15 K, 15000 kPa	765.98 ± 0.4
283.15 K, 20000 kPa	770.36 ± 0.43
283.15 K, 25000 kPa	774.54 ± 0.46
283.15 K, 30000 kPa	778.52 ± 0.49
283.15 K, 35000 kPa	782.33 ± 0.53
283.15 K, 40000 kPa	785.98 ± 0.57
283.15 K, 45000 kPa	789.49 ± 0.6
283.15 K, 50000 kPa	792.89 ± 0.64
283.15 K, 55000 kPa	796.17 ± 0.67
283.15 K, 60000 kPa	799.33 ± 0.7
283.15 K, 65000 kPa	802.42 ± 0.73
288.15 K, 100 kPa	746.2 ± 0.3
288.15 K, 5000 kPa	751.53 ± 0.33
288.15 K, 10000 kPa	756.63 ± 0.36
288.15 K, 15000 kPa	761.42 ± 0.4
288.15 K, 20000 kPa	765.93 ± 0.43
288.15 K, 25000 kPa	770.23 ± 0.47
288.15 K, 30000 kPa	774.31 ± 0.5
288.15 K, 35000 kPa	778.21 ± 0.54
288.15 K, 40000 kPa	781.97 ± 0.57
288.15 K, 45000 kPa	785.55 ± 0.61
288.15 K, 50000 kPa	789.02 ± 0.64
288.15 K, 55000 kPa	792.37 ± 0.68
288.15 K, 60000 kPa	795.56 ± 0.71
288.15 K, 65000 kPa	798.71 ± 0.74
293.15 K, 100 kPa	741.05 ± 0.3
293.15 K, 5000 kPa	746.6 ± 0.33
293.15 K, 10000 kPa	751.89 ± 0.37
293.15 K, 15000 kPa	756.83 ± 0.4
293.15 K, 20000 kPa	761.5 ± 0.44
293.15 K, 25000 kPa	765.92 ± 0.47
293.15 K, 30000 kPa	770.13 ± 0.5
293.15 K, 35000 kPa	774.13 ± 0.54
293.15 K, 40000 kPa	777.97 ± 0.58
293.15 K, 45000 kPa	781.65 ± 0.62
293.15 K, 50000 kPa	785.19 ± 0.65
293.15 K, 55000 kPa	788.63 ± 0.69
293.15 K, 60000 kPa	791.91 ± 0.72
293.15 K, 65000 kPa	795.1 ± 0.75
298.15 K, 100 kPa	735.9 ± 0.3
298.15 K, 5000 kPa	741.67 ± 0.33
298.15 K, 10000 kPa	747.14 ± 0.37
298.15 K, 15000 kPa	752.27 ± 0.4
298.15 K, 20000 kPa	757.08 ± 0.44
298.15 K, 25000 kPa	761.61 ± 0.47
298.15 K, 30000 kPa	765.96 ± 0.51
298.15 K, 35000 kPa	770.04 ± 0.55
298.15 K, 40000 kPa	773.96 ± 0.59
298.15 K, 45000 kPa	777.75 ± 0.62
298.15 K, 50000 kPa	781.37 ± 0.66
298.15 K, 55000 kPa	784.85 ± 0.69
298.15 K, 60000 kPa	788.21 ± 0.73
298.15 K, 65000 kPa	791.48 ± 0.76
303.15 K, 100 kPa	730.67 ± 0.3
303.15 K, 5000 kPa	736.68 ± 0.33
303.15 K, 10000 kPa	742.38 ± 0.37
303.15 K, 15000 kPa	747.69 ± 0.41
303.15 K, 20000 kPa	752.63 ± 0.44
303.15 K, 25000 kPa	757.33 ± 0.48
303.15 K, 30000 kPa	761.74 ± 0.52
303.15 K, 35000 kPa	765.95 ± 0.56
303.15 K, 40000 kPa	769.98 ± 0.59
303.15 K, 45000 kPa	773.86 ± 0.63
303.15 K, 50000 kPa	777.57 ± 0.67
303.15 K, 55000 kPa	781.12 ± 0.7
303.15 K, 60000 kPa	784.56 ± 0.74
303.15 K, 65000 kPa	787.89 ± 0.77
308.15 K, 100 kPa	725.44 ± 0.3
308.15 K, 5000 kPa	731.69 ± 0.33
308.15 K, 10000 kPa	737.6 ± 0.37
308.15 K, 15000 kPa	743.07 ± 0.41
308.15 K, 20000 kPa	748.18 ± 0.44
308.15 K, 25000 kPa	753.01 ± 0.48
308.15 K, 30000 kPa	757.57 ± 0.52
308.15 K, 35000 kPa	761.9 ± 0.56
308.15 K, 40000 kPa	766.03 ± 0.6
308.15 K, 45000 kPa	769.97 ± 0.64
308.15 K, 50000 kPa	773.76 ± 0.68
308.15 K, 55000 kPa	777.4 ± 0.71
308.15 K, 60000 kPa	780.9 ± 0.75
308.15 K, 65000 kPa	784.29 ± 0.78
313.15 K, 100 kPa	720.14 ± 0.3
313.15 K, 5000 kPa	726.68 ± 0.34
313.15 K, 10000 kPa	732.78 ± 0.37
313.15 K, 15000 kPa	738.45 ± 0.41
313.15 K, 20000 kPa	743.71 ± 0.45
313.15 K, 25000 kPa	748.69 ± 0.48
313.15 K, 30000 kPa	753.36 ± 0.53
313.15 K, 35000 kPa	757.81 ± 0.57
313.15 K, 40000 kPa	762.03 ± 0.61
313.15 K, 45000 kPa	766.08 ± 0.65
313.15 K, 50000 kPa	769.94 ± 0.68
313.15 K, 55000 kPa	773.66 ± 0.72
313.15 K, 60000 kPa	777.23 ± 0.75
313.15 K, 65000 kPa	780.69 ± 0.79
318.15 K, 100 kPa	714.82 ± 0.3
318.15 K, 5000 kPa	721.59 ± 0.34
318.15 K, 10000 kPa	727.94 ± 0.37
318.15 K, 15000 kPa	733.82 ± 0.41
318.15 K, 20000 kPa	739.27 ± 0.45
318.15 K, 25000 kPa	744.39 ± 0.49
318.15 K, 30000 kPa	749.2 ± 0.53
318.15 K, 35000 kPa	753.76 ± 0.57
318.15 K, 40000 kPa	758.08 ± 0.61
318.15 K, 45000 kPa	762.23 ± 0.65
318.15 K, 50000 kPa	766.19 ± 0.69
318.15 K, 55000 kPa	769.98 ± 0.73
318.15 K, 60000 kPa	773.61 ± 0.76
318.15 K, 65000 kPa	777.13 ± 0.8
323.15 K, 100 kPa	709.43 ± 0.3
323.15 K, 5000 kPa	716.51 ± 0.34
323.15 K, 10000 kPa	723.13 ± 0.38
323.15 K, 15000 kPa	729.2 ± 0.42
323.15 K, 20000 kPa	734.81 ± 0.45
323.15 K, 25000 kPa	740.06 ± 0.49
323.15 K, 30000 kPa	745.02 ± 0.54
323.15 K, 35000 kPa	749.69 ± 0.58
323.15 K, 40000 kPa	754.13 ± 0.62
323.15 K, 45000 kPa	758.36 ± 0.66
323.15 K, 50000 kPa	762.39 ± 0.7
323.15 K, 55000 kPa	766.26 ± 0.74
323.15 K, 60000 kPa	770 ± 0.77
323.15 K, 65000 kPa	773.58 ± 0.81
328.15 K, 100 kPa	703.95 ± 0.3
328.15 K, 5000 kPa	711.38 ± 0.34
328.15 K, 10000 kPa	718.21 ± 0.38
328.15 K, 15000 kPa	724.52 ± 0.42
328.15 K, 20000 kPa	730.3 ± 0.46
328.15 K, 25000 kPa	735.75 ± 0.5
328.15 K, 30000 kPa	740.83 ± 0.54
328.15 K, 35000 kPa	745.64 ± 0.58
328.15 K, 40000 kPa	750.18 ± 0.63
328.15 K, 45000 kPa	754.48 ± 0.67
328.15 K, 50000 kPa	758.63 ± 0.71
328.15 K, 55000 kPa	762.55 ± 0.74
328.15 K, 60000 kPa	766.37 ± 0.78
328.15 K, 65000 kPa	770.52 ± 0.82
333.15 K, 100 kPa	698.45 ± 0.3
333.15 K, 5000 kPa	706.19 ± 0.34
333.15 K, 10000 kPa	713.35 ± 0.38
333.15 K, 15000 kPa	719.84 ± 0.42
333.15 K, 20000 kPa	725.83 ± 0.46
333.15 K, 25000 kPa	731.42 ± 0.5
333.15 K, 30000 kPa	736.64 ± 0.55
333.15 K, 35000 kPa	741.54 ± 0.59
333.15 K, 40000 kPa	746.21 ± 0.63
333.15 K, 45000 kPa	750.65 ± 0.67
333.15 K, 50000 kPa	754.86 ± 0.71
333.15 K, 55000 kPa	758.88 ± 0.75
333.15 K, 60000 kPa	762.77 ± 0.79
333.15 K, 65000 kPa	766.51 ± 0.83
